Where two headings read alike, the source gives them in different places.
How the values were obtained:
LCK = settings: read-out: Crizotinib IC50 Biochemical; ref Cui et al., 2011; cited from earlier work
AXL = settings: read-out: Crizotinib IC50 Biochemical; ref Cui et al., 2011; cited from earlier work
TRKA = settings: read-out: Crizotinib IC50 Biochemical; ref Cui et al., 2011; cited from earlier work
MuSK = target: T1, MuSK (Homo sapiens, UniProt O15146); test: NanoBRET target engagement, MuSK-NanoLuc, HEK293 cells (live, ATP depleted, permeabilized); type: binding; settings: read-out: Tracer Affinity EC50
T1 sequence (O15146 24-869): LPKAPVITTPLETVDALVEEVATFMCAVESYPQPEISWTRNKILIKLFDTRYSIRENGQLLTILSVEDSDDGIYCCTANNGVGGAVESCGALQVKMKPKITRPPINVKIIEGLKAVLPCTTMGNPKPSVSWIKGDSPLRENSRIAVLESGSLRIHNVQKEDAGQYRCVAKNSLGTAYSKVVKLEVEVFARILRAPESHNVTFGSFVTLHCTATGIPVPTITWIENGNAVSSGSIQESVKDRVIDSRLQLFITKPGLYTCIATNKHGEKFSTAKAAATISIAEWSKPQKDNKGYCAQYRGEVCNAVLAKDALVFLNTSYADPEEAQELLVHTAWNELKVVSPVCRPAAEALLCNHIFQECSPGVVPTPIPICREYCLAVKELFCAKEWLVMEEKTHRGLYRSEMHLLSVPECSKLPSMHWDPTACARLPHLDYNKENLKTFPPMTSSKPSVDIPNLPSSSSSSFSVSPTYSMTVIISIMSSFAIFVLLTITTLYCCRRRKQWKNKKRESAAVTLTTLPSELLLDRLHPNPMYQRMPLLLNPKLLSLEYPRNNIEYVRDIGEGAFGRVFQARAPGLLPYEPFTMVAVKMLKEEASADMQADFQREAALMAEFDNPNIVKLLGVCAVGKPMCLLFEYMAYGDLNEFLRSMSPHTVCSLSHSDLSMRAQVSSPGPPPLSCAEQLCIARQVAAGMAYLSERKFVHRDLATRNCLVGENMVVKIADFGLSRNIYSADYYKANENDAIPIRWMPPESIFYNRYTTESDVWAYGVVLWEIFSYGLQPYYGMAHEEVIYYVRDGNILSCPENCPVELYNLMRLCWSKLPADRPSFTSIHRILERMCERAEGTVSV

| EC50 (MuSK; ATP Depleted) [nM] | EC50 (MuSK; Live) [nM] | EC50 (MuSK; Permeabilized) [nM] | Structure (SMILES) | IC50 (LCK) [nM] | IC50 (AXL) [nM] | IC50 (TRKA) [nM] |
| --- | --- | --- | --- | --- | --- | --- |
| > 1000 | > 1000 | 180 ± 20 | CNC(=O)c1ccccc1Nc1nc(Nc2ccc(N3CCN(C(=O)CCOCCOCCOCCOCCNC(=O)CCc4ccc5n4[B-](F)(F)[N+]4=C(c6ccc[nH]6)C=CC4=C5)CC3)cc2)ncc1Cl [Energy Transfer Probe 5, 2-((2-((4-(4-(1-amino-3,6,9,12-tetraoxapentadecan-15-oyl)piperazin-1-yl)phenyl)amino)-5-chloropyrimidin-4-yl)amino)-N-methylbenzamide-NanoBRET 590] |  |  |  |

Source: article PMC5814754, “Quantitative, Wide-Spectrum Kinase Profiling in Live Cells for Assessing the Effect of Cellular ATP on Target Engagement” (Cell Chemical Biology, 2018)
